Counter-ions that a name gives are not always drawn.
Each compound was assayed against T1, human Glucose-dependent Insulinotropic Polypeptide Receptor (hGIPR) (Homo sapiens, UniProt P48546) (assay: Functional in vitro GIPR antagonist potency assay (cAMP HTRF, CHO-K1 cells stably expressing hGIPR, hGIP stimulation at about EC80)). Settings: geometric mean, hGIP at estimated EC80, examples marked ^2: overall geometric mean of multiple forms (including salts) tested.
T1 sequence (P48546 22-466): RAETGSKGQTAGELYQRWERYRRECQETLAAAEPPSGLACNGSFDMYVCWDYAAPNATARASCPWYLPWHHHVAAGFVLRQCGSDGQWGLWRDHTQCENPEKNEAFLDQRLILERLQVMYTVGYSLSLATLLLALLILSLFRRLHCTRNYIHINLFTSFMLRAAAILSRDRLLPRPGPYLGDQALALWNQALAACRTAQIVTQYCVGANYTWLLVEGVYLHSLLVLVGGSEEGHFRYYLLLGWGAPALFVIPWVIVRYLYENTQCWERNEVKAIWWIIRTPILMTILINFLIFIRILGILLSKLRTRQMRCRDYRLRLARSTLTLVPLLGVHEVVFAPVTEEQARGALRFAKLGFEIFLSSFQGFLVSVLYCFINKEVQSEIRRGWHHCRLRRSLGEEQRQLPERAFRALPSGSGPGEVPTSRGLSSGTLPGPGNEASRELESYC
Assay type: cell-based
In short: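 HTRF quantification of cAMP after stimulation with hGIP at an estimated EC80 for 30 min at 37 °C. Before stimulation, hGIPR-expressing CHO-K1 cells were exposed 2 h to test compound in IBMX-containing buffer, with 0.5% DMSO final. Percent effect is referenced to agonist alone (0%) and to 80 μM of a reference antagonist (100%), and runs required the agonist concentration to fall within the on-the-day EC50–EC90.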

In order of falling IC50:
1. O=C(O)[C@@H]1CCc2nc(NC(=O)[C@H]3CCCN3C(=O)Nc3ccc(C(F)(F)F)cc3)ccc2C1 (single isomer, unassigned) [Example 217, 2-[(1-{[4-(trifluoromethyl)phenyl]carbamoyl}-D-prolyl)amino]-5,6,7,8-tetrahydroquinoline-6-carboxylic acid, DIAST-1]  0.14 µM
2. Cc1cc(-c2ccc(NC(=O)[C@H]3CCCN3C(=O)Nc3ccc(C(C)C)cc3)cc2)ccc1C(N)=O [Example 52, (2R)-N^2-(4′-carbamoyl-3′-methyl[1,1′-biphenyl]-4-yl)-N^1-[4-(propan-2-yl)phenyl]pyrrolidine-1,2-dicarboxamide]  0.12 µM
3. O=C(O)c1ccc(-c2ccc(NC(=O)[C@H]3CCCN3C(=O)Nc3cnc(C(F)(F)F)nc3)cc2)cc1 [Example 101, 4′-[(1-{[2-(trifluoromethyl)pyrimidin-5-yl]carbamoyl}-D-prolyl)amino][1,1′-biphenyl]-4-carboxylic acid]  0.092 µM
4. Cc1cc(NC(=O)N2CCC[C@@H]2C(=O)Nc2ccc(-c3ccc(C(=O)O)nc3)cn2)ccc1C(C)C [Example 201, ammonium 6′-[(1-{[3-methyl-4-(propan-2-yl)phenyl]carbamoyl}-D-prolyl)amino][3,3′-bipyridine]-6-carboxylate]  0.091 µM
5. O=C(O)c1ccc2cc(NC(=O)[C@H]3CCCN3C(=O)Nc3ccc(C(F)(F)F)cc3)ccc2c1 [Example 161, 6-[(1-{[4-(trifluoromethyl)phenyl]carbamoyl}-D-prolyl)amino]naphthalene-2-carboxylic acid]  0.077 µM
6. O=C(O)c1ccc(-c2ccc(NC(=O)[C@H]3CCCN3C(=O)NCc3ccc(F)c(Cl)c3)cc2)cc1 [Example 124, 4′-[(1-{[(3-chloro-4-fluorophenyl)methyl]carbamoyl}-D-prolyl)amino][1,1′-biphenyl]-4-carboxylic acid]  0.074 µM
7. Cc1cc(NC(=O)N2CCC[C@@H]2C(=O)Nc2ccc(-c3ccc(C(=O)O)cc3)cc2)cnc1C(C)C [Example 145, 4′-[(1-{[5-methyl-6-(propan-2-yl)pyridin-3-yl]carbamoyl}-D-prolyl)amino][1,1′-biphenyl]-4-carboxylic acid, trifluoroacetate salt]  0.07 µM
8. O=C(O)c1cccc(-c2ccc(NC(=O)[C@H]3CCCN3C(=O)NCc3ccc(C(F)(F)F)c(F)c3)nc2)c1 [Example 223, 3-(6-{[1-({[3-fluoro-4-(trifluoromethyl)phenyl]methyl}carbamoyl)-D-prolyl]amino}pyridin-3-yl)benzoic acid]  0.051 µM
9. O=C(O)c1ccc(-c2ccc(NC(=O)[C@H]3CCCN3C(=O)NCc3cc(F)c(Cl)cc3F)cc2)cc1 [Example 138, 4′-[(1-{[(4-chloro-2,5-difluorophenyl)methyl]carbamoyl}-D-prolyl)amino][1,1′-biphenyl]-4-carboxylic acid]  0.042 µM
10. CC(C)c1ccc(NC(=O)N2CCC[C@@H]2C(=O)Nc2ccc(-c3ccc(C(=O)O)c(C(F)(F)F)c3)cc2)cc1 [Example 68, 4′-[(1-{[4-(propan-2-yl)phenyl]carbamoyl}-D-prolyl)amino]-3-(trifluoromethyl)[1,1′-biphenyl]-4-carboxylic acid]  0.038 µM
11. CC(C)c1ccc(NC(=O)N2CCC[C@@H]2C(=O)Nc2ccc3c(n2)CC[C@@H](C(=O)O)C3)cc1F (single isomer, unassigned) [Example 228, 2-[(1-{[3-fluoro-4-(propan-2-yl)phenyl]carbamoyl}-D-prolyl)amino]-5,6,7,8-tetrahydroquinoline-6-carboxylic acid, trifluoroacetate salt, DIAST-1]  0.036 µM
12. Cc1cc(NC(=O)N2CCC[C@@H]2C(=O)Nc2ccc(-c3ccc(C(=O)O)c(F)c3)cn2)ccc1C(F)(F)F [Example 186, 2-fluoro-4-{6-[(1-{[3-methyl-4-(trifluoromethyl)phenyl]carbamoyl}-D-prolyl)amino]pyridin-3-yl}benzoic acid]  0.036 µM
13. CC(C)c1ccc(NC(=O)N2CCC[C@@H]2C(=O)Nc2ccc(-c3cc(Cl)c(C(=O)O)cc3F)cc2)cc1 [Example 98, 5-chloro-2-fluoro-4′-[(1-{[4-(propan-2-yl)phenyl]carbamoyl}-D-prolyl)amino][1,1′-biphenyl]-4-carboxylic acid]  0.03 µM
14. O=C(O)c1ccc(-c2ccc(NC(=O)[C@H]3CCCN3C(=O)NCc3cc(Cl)cc(Cl)c3)cc2)cc1 [Example 113, 4′-[(1-{[(3,5-dichlorophenyl)methyl]carbamoyl}-D-prolyl)amino][1,1′-biphenyl]-4-carboxylic acid]  0.021 µM
15. Cc1cc(C(=O)O)c(F)cc1-c1ccc(NC(=O)[C@H]2CCCN2C(=O)Nc2ccc(C(C)C)cc2)cc1 [Example 84, 5-fluoro-2-methyl-4′-[(1-{[4-(propan-2-yl)phenyl]carbamoyl}-D-prolyl)amino][1,1′-biphenyl]-4-carboxylic acid]  0.019 µM
16. Cc1nc(C(=O)O)ccc1-c1ccc(NC(=O)[C@H]2CCCN2C(=O)NCc2ccc(C(C)C)cc2)cc1 [Example 205, 6-methyl-5-(4-{[1-({[4-(propan-2-yl)phenyl]methyl}carbamoyl)-D-prolyl]amino}phenyl)pyridine-2-carboxylic acid]  0.014 µM
17. O=C(O)[C@@H]1CCc2nc(NC(=O)[C@H]3CCCN3C(=O)Nc3ccc(C(F)(F)F)c(F)c3)ccc2C1 (single isomer, unassigned) [Example 221, 2-[(1-{[3-fluoro-4-(trifluoromethyl)phenyl]carbamoyl}-D-prolyl)amino]-5,6,7,8-tetrahydroquinoline-6-carboxylic acid, DIAST-2]  0.011 µM
18. O=C(O)c1ccc(-c2ccc(NC(=O)[C@H]3CCCN3C(=O)NCc3ccc(C(F)(F)F)cc3)nc2)cc1 [Example 153, 4-(6-{[1-({[4-(trifluoromethyl)phenyl]methyl}carbamoyl)-D-prolyl]amino}pyridin-3-yl)benzoic acid]  0.011 µM
19. C=C(C)c1ccc(NC(=O)N2CCC[C@@H]2C(=O)Nc2ccc(-c3ccc(C(=O)O)cc3)cc2)cc1 [Example 12, 4′-[(1-{[4-(prop-1-en-2-yl)phenyl]carbamoyl}-D-prolyl)amino][1,1′-biphenyl]-4-carboxylic acid]  0.01 µM
20. Cc1cc(NC(=O)N2CCC[C@@H]2C(=O)Nc2ccc(-c3ccc(C(=O)O)cc3)cc2)ncc1C(C)C [Example 146, 4′-[(1-{[4-methyl-5-(propan-2-yl)pyridin-2-yl]carbamoyl}-D-prolyl)amino][1,1′-biphenyl]-4-carboxylic acid, trifluoroacetate salt]  0.0097 µM
21. Cc1cc(NC(=O)N2CCC[C@@H]2C(=O)Nc2ccc(-c3ccc(C(=O)O)cc3)cc2)ncc1C(F)(F)F [Example 203, 4′-[(1-{[4-methyl-5-(trifluoromethyl)pyridin-2-yl]carbamoyl}-D-prolyl)amino][1,1′-biphenyl]-4-carboxylic acid]  0.0084 µM
22. Cc1cc(-c2ccc(NC(=O)[C@H]3CCCN3C(=O)Nc3ccc(C(C)C)cc3)cc2)ccc1C(=O)O [Example 40, 3-methyl-4′-[(1-{[4-(propan-2-yl)phenyl]carbamoyl}-D-prolyl)amino][1,1′-biphenyl]-4-carboxylic acid]  0.0073 µM
23. Cc1nc(C(=O)O)ccc1-c1ccc(NC(=O)[C@H]2CCCN2C(=O)Nc2ccc(C(C)C)c(F)c2)cc1 [Example 27, 5-{4-[(1-{[3-Fluoro-4-(propan-2-yl)phenyl]carbamoyl}-D-prolyl)amino]phenyl}-6-methylpyridine-2-carboxylic acid]  0.0048 µM
24. CC(C)c1ccc(NC(=O)N2CC[C@@H](C)[C@@H]2C(=O)Nc2ccc(-c3ccc(C(=O)O)cc3)cc2)cc1 (single isomer, unassigned) [Example 35, 4′-{[(3R)-3-Methyl-1-{[4-(propan-2-yl)phenyl]carbamoyl}-D-prolyl]amino}[1,1′-biphenyl]-4-carboxylic acid or 4′-{[(3S)-3-Methyl-1-{[4-(propan-2-yl)phenyl]carbamoyl}-L-prolyl]amino}[1,1′-biphenyl]-4-carboxylic acid]  0.0046 µM
25. Cc1cc(C(=O)O)ccc1-c1ccc(NC(=O)[C@H]2CCCN2C(=O)Nc2ccc(C(C)C)c(C)c2)nc1 [Example 173, 3-methyl-4-{6-[(1-{[3-methyl-4-(propan-2-yl)phenyl]carbamoyl}-D-prolyl)amino]pyridin-3-yl}benzoic acid]  0.0044 µM
26. Cc1cc(NC(=O)N2CCC[C@@H]2C(=O)Nc2ccc(-c3ccc(C(=O)O)cc3)cn2)ccc1C1CC1 [Example 179, 4-[6-({1-[(4-cyclopropyl-3-methylphenyl)carbamoyl]-D-prolyl}amino)pyridin-3-yl]benzoic acid]  0.0037 µM
27. O=C(O)c1ccc(-c2ccc(NC(=O)[C@H]3CCCN3C(=O)Nc3ccc(C(F)(F)F)cc3)cc2)cc1 [Example 16, Ammonium 4′-[(1-{[4-(trifluoromethyl)phenyl]carbamoyl}-D-prolyl)amino][1,1′-biphenyl]-4-carboxylate]  0.0037 µM
28. CC(C)c1ccc(NC(=O)N2CCC[C@@H]2C(=O)Nc2ccc(-c3ccc(C(=O)O)cc3C(C)C)cc2)cc1 [Example 71, 2-(propan-2-yl)-4′-[(1-{[4-(propan-2-yl)phenyl]carbamoyl}-D-prolyl)amino][1,1′-biphenyl]-4-carboxylic acid]  0.0025 µM
